Source: patent publication US10786481B2, “Hydroquinone compounds, preparation methods therefor, and use in anti-tumor or immunomodulation therapy” (Biomedical Analysis Center, Academy of Military Medical …, priority 2016, dated 2020)
Like-named read-outs stand apart in the source and are kept apart here.

What was measured:
monocytes = details: via inhibition of ROS generation; Cell Research 2013, 23:898-914; cited from earlier work
[1] = tested on: mice embryonic fibroblast (NIH3t3); assay: Cytotoxicity, MTS method, NIH3T3 cell; format: cell-based; details: Mus musculus
Description: (§1) The toxicity of compounds is detected with MTS method in the immortalized mice bone marrowmacrophages (IBMM), mice embryonic fibroblast (NIH3t3) and humanized embryonic nephrocyte.

macrophages M2 = assay: Polarization of macrophages M2; details: FIG. 1
[2] = Acute toxicity in mice, up-down method; format: in vivo; details: mouse, in vivo
Protocol: (§2) Detecting the acute toxicity of some of the compounds by using up-down method. Intragastric administrating a drug to the mice of 20˜22 g; lyase is corn oil, fasting for 12 h before administration, with free drinking.

Her2 breast cancer = assay: Mice model with Her2 breast cancer; format: in vivo
[3] = Drug metabolism tests of BHA in vivo; set-up: species or system mice; details: for half-life: mouse, plasma
[4] = tested on: immortalized mice bone marrowmacrophages (IBMM); assay: Cytotoxicity, MTS method, IBMM cell; format: cell-based; details: Mus musculus, Bone marrow macrophage, read-out: IC50(mM) IBMM cell
Description: as §1

mice [5] = assay: Toxicology experiment of BHA in mice; format: in vivo
[6] = tested on: humanized embryonic nephrocyte (HEK293 cell); assay: Cytotoxicity, MTS method, HEK293 cell; format: cell-based; details: Homo sapiens
Description: as §1

[7] = tested on: lung cancer in K-rasLA2 model mice; details: fodder of 0.75% BHA; Cell Research 2013, 23:898-914; cited from earlier work
mice [8] = assay: Acute toxicity in mice, up-down method; format: in vivo; details: mice, intragastric
Protocol: as §2

[9] = Release experiment of target compound in human plasma; details: 37° C., 5 min to 9 h
Protocol: Mobile phase: gradient elution; A: water; B: methanol;
Chromatographic column: CAPCEL PAK MF PH-1;
Detecting instrument: TQ-S; ion source: APCI; ion detection mode: MRM;
Dissolving the target compound with DMSO, then diluting to 5 μg/mL with the normal saline of 0.9%. The human blank plasma after subpackage is preserved at −70° C., unfreezing in a refrigerator at 4° C. when used. Take 20 μL of the blank plasma, adding 20 μL of the target compound solution as above formulated, vortexing for 15 s, and left it in the water bath at 37° C. […] Take the supernatant and inject 10 μL for detection.

[10] = po, mice, intragastric, corn oil, up-down method, unit inferred
[11] = NIH3T3, MTS method, read-out: IC50(mM) NIH3T3 cell
[12] = HEK293, MTS method, read-out: IC50(mM) HEK293 cell

release of BHA in human plasma [9] | Molecule | differentiation of monocytes toward M2 macrophages (monocytes) | LD50 [2, 10] [mg/kg] | IC50 [1, 11] [mM] | acute toxicity compared with BHA (mice [8]) | IC50 ([4]; MTS method) [mM] | IC50 [6, 12] [mM] | further results
 | COc1cc(C(C)=O)ccc1O [Apocynin] | inhibit differentiation of monocytes toward M2 macrophages |  |  |  |  |  | 
 | COc1ccc(O)c(C(C)(C)C)c1 [BHA, 2-tert-butyl-4-methoxyphenol] | inhibit differentiation of monocytes toward M2 macrophages | 1100 |  |  |  |  | IC50 ([1]; NIH3T3, read-out: IC50(mM) NIH3T3 cell): 0.267 mM; polarization effect of macrophages M2 (macrophages M2): inhibits the polarization effect of macrophages M2; LD50 ([2]; oral, acute toxicity in mice, as restated): 1100 mg/kg; anti-tumor effects (Her2 breast cancer; HER2 mice model, 50-1000 mg/kg BW dosed in portions): obvious anti-tumor effects; metastasis in head (Her2 breast cancer; Her2 tumor model with the breast cancer, FIG. 1A): not observed; half-life ([3]; FIG. 2A and B, read-out: half-life of BHA in vivo): 30 to 60 min; half-life ([3]; mice, oral, read-out: T112 (half-life)): 20 min; time to peak ([3]; oral): 5 min; IC50 [4]: 0.218 mM; toxic signs (mice [5]; 600 mg/kg, recover after half an hour): central effect of partially “hangover” state; mortality (mice [5]; 1100 mg/kg): Half of the mice with 1100 mg/kg are caused to die; time until symptoms of the toxic reaction disappear in survival mice (mice [5]; 1100 mg/kg): 30 to 60 min; toxic effect, long term dosing (mice [5]; low dose, long term dosed for two years): toxic effect is not seen; IC50 ([6]; HEK293, read-out: IC50(mM) HEK293 cell): 0.325 mM; generation of lung cancer [7]: completely inhibited
 | CC(=O)N[C@@H](CS)C(=O)O [NAC] | inhibit differentiation of monocytes toward M2 macrophages |  |  |  |  |  | 
 | CC1(C)CCCC(C)(C)N1[O] [TEMPO] | inhibit differentiation of monocytes toward M2 macrophages |  |  |  |  |  | 
releases BHA | COc1ccc(OC(=O)C2CCCC2)c(C(C)(C)C)c1 [XH2039-6, (2-tert-butyl-4-methoxyphenol) cyclopentanecarboxylate] |  |  | 0.229 |  | 0.171 | 0.136 | 
releases BHA | COc1ccc(OC(=O)CC2CC2)c(C(C)(C)C)c1 [XH2040-2, (2-tert-butyl-4-methoxyphenol) cyclopropylacetate] |  |  | 0.232 |  | 0.202 | 0.237 | 
releases BHA | CCCCCCCC(=O)Oc1ccc(OC)cc1C(C)(C)C [XH2040-4, (2-tert-butyl-4-methoxyphenol) octanoate] |  |  | 0.366 |  | 0.198 | 0.283 | 
releases BHA | COc1ccc(OC(=O)Cc2cc(F)c(F)cc2F)c(C(C)(C)C)c1 [XH2041-2, (2-tert-butyl-4-methoxyphenol) 2,4,5-trifluorophenylacetate] |  |  | 0.26 |  | 0.156 | 0.349 | 
releases BHA | COc1ccc(OC(=O)CC(F)(F)F)c(C(C)(C)C)c1 [XH2044-1, (2-tert-butyl-4-methoxyphenol) 3,3,3-trifluoropropionate] |  |  | 0.353 |  | > 0.7 | 0.206 | 

Molecule | release of BHA in human plasma [9] | differentiation of monocytes toward M2 macrophages (monocytes) | LD50 [2, 10] [mg/kg] | IC50 [1, 11] [mM] | acute toxicity compared with BHA (mice [8]) | IC50 ([4]; MTS method) [mM] | IC50 [6, 12] [mM] | further results
COc1ccc(OC(C)=O)c(C(C)(C)C)c1 [XH2006, 2-tert-butyl-4-methoxyphenol acetate] | releases BHA |  | > 1200 | 0.021 | lower than that of 2-tert-butyl-4-methoxyphenol-oxyl (BHA) | 0.443 | 0.118 | 
COc1ccc(OC(=O)c2cccnc2)c(C(C)(C)C)c1 [XH2010, 2-tert-butyl-4-methoxyphenol nicotinate] | releases BHA |  | > 1200 | 0.186 | lower than that of 2-tert-butyl-4-methoxyphenol-oxyl (BHA) | 0.175 | 0.207 | 
COc1ccc(OC(=O)c2ccncc2)c(C(C)(C)C)c1 [XH2011, 2-tert-butyl-4-methoxyphenol isonicotinate] | releases BHA |  | > 1300 | 0.0326 | lower than that of 2-tert-butyl-4-methoxyphenol-oxyl (BHA) | 0.119 | 0.311 | 
(2-tert-butyl-4-methoxyphenol) morpholin-4-yl acetate [XH2044-2] | releases BHA |  |  |  | lower than that of 2-tert-butyl-4-methoxyphenol-oxyl (BHA) |  |  | LD50 (mice [8]; corn oil, up-down method, unit inferred): > 1300 mg/kg
